{"source": "patent US20100323016A1", "about": "“MODIFIED RELEASE FORMULATION AND METHODS OF USE” (priority 2008, published 2010)", "test": "Solubility of retigabine in aqueous solution at varying pH", "type": "physicochemical", "excerpt": "Solubility was low in pH ranges of between pH 4.0 to pH 12.0.", "note": "Where two headings read alike, the source gives them in different places."}
{"compound": "CCOC(=O)Nc1ccc(NCc2ccc(F)cc2)cc1N", "note": "[retigabine, N-(2-amino-4-(fluorobenzylamino)-phenyl)carbamic acid ethyl ester]", "values": [{"measurement": "solubility as a function of pH", "setting": "above pH 3 (FIG. 5)", "value": "drops off precipitously"}, {"measurement": "solubility", "setting": "pH 3.0, aqueous conditions at 37° C.", "value": "nearly complete insolubility"}, {"measurement": "solubility", "setting": "pH 4.0 to pH 12.0, aqueous solution at 37° C.", "value": "low"}, {"measurement": "solubility", "setting": "simulated gastric fluid, pH 1.5, aqueous solution at 37° C., maximum solubility, read-out: solubility", "value": "~16", "unit": "mg/mL"}, {"measurement": "solubility", "setting": "simulated gastric fluid, pH 2.0, aqueous solution at 37° C., read-out: solubility", "value": "< 4", "unit": "mg/mL"}]}
